Measurements published in the CheMixHub viscosity set.

Test: xn = mol fraction of the nth substance listed

CCCCCCCCCCO + COC(=O)OC
viscosity [mPa·s], 100 kPa
Details | x2 = 0.1001 | x2 = 0.2001 | x2 = 0.3 | x2 = 0.4 | x2 = 0.5002 | x2 = 0.6 | x2 = 0.7001 | x2 = 0.8 | x2 = 0.9
303.15 K | 7.04 | 5.107 | 3.812 | 2.818 | 2.121 | 1.582 | 1.196 | 0.901 | 0.683
308.15 K | 5.988 | 4.394 | 3.309 | 2.477 | 1.885 | 1.423 | 1.084 | 0.831 | 0.637
313.15 K | 5.091 | 3.804 | 2.897 | 2.191 | 1.686 | 1.288 | 0.991 | 0.772 | 0.596
318.15 K | 4.385 | 3.313 | 2.552 | 1.953 | 1.519 | 1.167 | 0.913 | 0.716 | 0.559
323.15 K | 3.777 | 2.903 | 2.258 | 1.751 | 1.37 | 1.069 | 0.843 | 0.667 | 0.526

Cc1ccccc1C + CC(C)CO
308.15 K, 101 kPa
Details | viscosity [mPa·s]
x2 = 0.0649 | 0.669
x2 = 0.1278 | 0.681
x2 = 0.2187 | 0.684
x2 = 0.3335 | 0.77
x2 = 0.4418 | 0.851
x2 = 0.5688 | 0.986
x2 = 0.6291 | 1.064
x2 = 0.7214 | 1.215
x2 = 0.8196 | 1.486
x2 = 0.9023 | 1.835
x2 = 0.9616 | 2.245

OCCOCCOCCOCCOCCO + O
viscosity [mPa·s], 100 kPa
Details | 293.15 K | 298.15 K | 303.15 K | 308.15 K | 313.15 K | 318.15 K | 323.15 K
x2 = 0.023 | 70.88 | 54.12 | 42.28 | 33.63 | 27.22 | 22.34 | 18.57
x2 = 0.081 | 72.83 | 55.72 | 43.21 | 34.21 | 27.55 | 22.56 | 18.68
x2 = 0.144 | 71.38 | 54.33 | 42.28 | 33.53 | 27.01 | 22.11 | 18.34
x2 = 0.166 | 70.74 | 53.66 | 41.76 | 33.1 | 26.67 | 21.83 | 18.08

COCCOCCO + ClC(Cl)=C(Cl)Cl
298.15 K, 101.33 kPa
Details | viscosity [mPa·s]
x1 = 0.0072 | 0.852
x1 = 0.0147 | 0.859
x1 = 0.0261 | 0.869
x1 = 0.0417 | 0.884
x1 = 0.0604 | 0.911
x1 = 0.0868 | 0.948
x1 = 0.1038 | 0.975
x1 = 0.1347 | 1.023
x1 = 0.1769 | 1.092
x1 = 0.2025 | 1.139
x1 = 0.2433 | 1.216
x1 = 0.2755 | 1.279
x1 = 0.3041 | 1.34
x1 = 0.3353 | 1.413
x1 = 0.374 | 1.504
x1 = 0.4127 | 1.596
x1 = 0.4577 | 1.712
x1 = 0.4877 | 1.796
x1 = 0.5213 | 1.9
x1 = 0.5632 | 2.03
x1 = 0.5988 | 2.14
x1 = 0.6333 | 2.253
x1 = 0.6701 | 2.366
x1 = 0.7061 | 2.48
x1 = 0.7414 | 2.593
x1 = 0.7892 | 2.754
x1 = 0.8427 | 2.948
x1 = 0.8844 | 3.109
x1 = 0.9138 | 3.225
x1 = 0.9381 | 3.323
x1 = 0.9613 | 3.414
x1 = 0.978 | 3.478
x2 = 0.0115 | 3.521

CCOC(=O)OCC + CCCCO
101 kPa
Details | viscosity [mPa·s]
293.15 K, x1 = 0.05477 | 2.407
293.15 K, x1 = 0.1013 | 2.092
293.15 K, x1 = 0.1989 | 1.633
293.15 K, x1 = 0.3128 | 1.321
293.15 K, x1 = 0.4106 | 1.145
293.15 K, x1 = 0.5009 | 1.023
293.15 K, x1 = 0.6135 | 0.901
293.15 K, x1 = 0.7033 | 0.838
293.15 K, x1 = 0.7967 | 0.806
293.15 K, x1 = 0.8803 | 0.807
293.15 K, x1 = 0.9292 | 0.802
303.15 K, x1 = 0.1264 | 1.549
303.15 K, x1 = 0.2963 | 1.093
303.15 K, x1 = 0.4038 | 0.957
303.15 K, x1 = 0.5148 | 0.867
303.15 K, x1 = 0.6085 | 0.808
303.15 K, x1 = 0.7037 | 0.759
303.15 K, x1 = 0.8066 | 0.717
303.15 K, x1 = 0.9043 | 0.701
313.15 K, x1 = 0.04531 | 1.564
313.15 K, x1 = 0.2917 | 0.947
313.15 K, x1 = 0.4025 | 0.819
313.15 K, x1 = 0.5009 | 0.743
313.15 K, x1 = 0.6129 | 0.679
313.15 K, x1 = 0.7014 | 0.645
313.15 K, x1 = 0.81 | 0.628
313.15 K, x1 = 0.9091 | 0.619

CCCCCCCCCCO + CCCCCCCC
298.15 K, 101.3 kPa
Details | viscosity [mPa·s]
x1 = 0.0592 | 0.601
x1 = 0.11 | 0.678
x1 = 0.1555 | 0.769
x1 = 0.2012 | 0.876
x1 = 0.2553 | 1.032
x1 = 0.303 | 1.194
x1 = 0.4085 | 1.665
x1 = 0.5085 | 2.311
x1 = 0.6109 | 3.244
x1 = 0.7126 | 4.541
x1 = 0.7879 | 5.827
x1 = 0.8535 | 7.233
x1 = 0.9129 | 8.795
x1 = 0.9391 | 9.583

Cc1ccccc1C + CCC(C)O
308.15 K, 101 kPa
Details | viscosity [mPa·s]
x2 = 0.0648 | 0.655
x2 = 0.1275 | 0.663
x2 = 0.2083 | 0.681
x2 = 0.3048 | 0.679
x2 = 0.3787 | 0.715
x2 = 0.4323 | 0.742
x2 = 0.5015 | 0.796
x2 = 0.6005 | 0.879
x2 = 0.6944 | 1.048
x2 = 0.7978 | 1.265
x2 = 0.9485 | 1.751

Nc1ccc(S(=O)(=O)O)cc1 + O
101 kPa
Details | viscosity [mPa·s]
298.15 K, x1 = 0.0001913 | 0.8949
298.15 K, x1 = 0.0003038 | 0.8969
298.15 K, x1 = 0.0004208 | 0.899
298.15 K, x1 = 0.0005447 | 0.8999
298.15 K, x1 = 0.0006999 | 0.9031
308.15 K, x1 = 0.000111 | 0.7215
308.15 K, x1 = 0.0001913 | 0.7221
308.15 K, x1 = 0.0003038 | 0.724
308.15 K, x1 = 0.0003839 | 0.7252
308.15 K, x1 = 0.0004208 | 0.7255
308.15 K, x1 = 0.0006999 | 0.7281
318.15 K, x1 = 0.0002046 | 0.5999
318.15 K, x1 = 0.0003685 | 0.601
318.15 K, x1 = 0.0005157 | 0.6033
318.15 K, x1 = 0.0006087 | 0.6041
318.15 K, x1 = 0.0006767 | 0.6049
318.15 K, x1 = 0.0007735 | 0.6055

CCCCCC(=O)[O-].[NH3+]CCO + CCO
viscosity [mPa·s], 101 kPa
Details | x1 = 0.0135 | x2 = 0.794 | x2 = 0.8544 | x2 = 0.9 | x2 = 0.9391 | x2 = 0.9563 | x2 = 0.9719
293.15 K | 1.548 | 13.46 | 7.158 | 4.35 | 2.76 | 2.28 | 1.86
298.15 K | 1.428 | 11.38 | 6.24 | 3.87 | 2.472 | 2.046 | 1.74
303.15 K | 1.29 | 9.792 | 5.43 | 3.39 | 2.22 | 1.848 | 1.512

c1ccc(Oc2ccccc2)cc1 + CC(C)=O
298.15 K, 101 kPa
Details | viscosity [mPa·s]
x2 = 0.4843 | 1.339
x2 = 0.7306 | 0.714
x2 = 0.894 | 0.439

COCCOCCO + COC(=O)OC
298.15 K, 101.33 kPa
Details | viscosity [mPa·s]
x1 = 0.0093 | 0.598
x1 = 0.0245 | 0.612
x1 = 0.037 | 0.623
x1 = 0.0694 | 0.655
x1 = 0.0966 | 0.685
x1 = 0.1283 | 0.723
x1 = 0.1675 | 0.774
x1 = 0.1922 | 0.806
x1 = 0.2198 | 0.848
x1 = 0.3005 | 0.984
x1 = 0.3454 | 1.069
x1 = 0.3786 | 1.142
x1 = 0.3835 | 1.154
x1 = 0.4083 | 1.214
x1 = 0.4365 | 1.284
x1 = 0.4695 | 1.364
x1 = 0.5345 | 1.538
x1 = 0.584 | 1.681
x1 = 0.623 | 1.803
x1 = 0.6563 | 1.916
x1 = 0.7394 | 2.226
x1 = 0.7818 | 2.402
x1 = 0.8262 | 2.598
x1 = 0.8705 | 2.802
x1 = 0.8876 | 2.889
x1 = 0.9134 | 3.004
x1 = 0.9327 | 3.098
x1 = 0.9669 | 3.272
